This is an account of results in patent US20120053128A1, “Method of inhibiting angiogenesis” (XAVIER UNIVERSITY, priority 2010, published 2012).

Where two headings read alike, the source gives them in different places. Where no end group is shown, it is not given here.

Series [1] can be described thus: MDA-MB-231 cell viability (CellTiter 96 AQuous One). In kind it is cell-based, human. As to conditions: human, MDA-MB-231 human breast cancer cells; MDA-MB-231 cells, incubated two days, apoEdp about 6 to about 300 μM; read-out: 50% cytotoxic dose. Here is the method: (§1) To determine whether apoEdp affects cell survival, cell viability of human umbilical vein endothelial cells (HUVECs) and MDA-MB-231 human breast cancer cells was determined by using CellTiter 96® AQuous One solution cell proliferation kit (Promega, Madison, Wis.).
(§2) HUVECs were obtained from Lonza (Walkersville, Md.) and were maintained in endothelial cell basal medium (EBM-2) (Lonza, Walkersville, Md.) supplemented with 10% fetal bovine serum (FBS) and growth factors. (bullet kit, Lonza, Walkersville, Md.) HUVECs were used between passages 2-6. Human Breast Cancer cells MDA-MB-231 were obtained from the American Type Tissue Collection and cultured in Dulbecco's Modified Eagle's medium supplemented with 10% fetal bovine serum, 0.1 mg/mL streptomycin and 25 U/mL penicillin.
(§3) The MDA-MB-231 cells were in 96-well plates at about 5,000 cells per well. The MDA-MB-231 cells were then allowed to adhere to the plate with apoEdp in various concentrations in the range of about 6 μM to about 300 μM. The cells were incubated for two days, and cell numbers were determined using the CellTiter 96® AQuous One Solution cell proliferation kit. (Promega, Madison, Wis.)

Series [2] has as its system MDA-MB-231 human breast cancer cells. The description is as above. In kind it is cell-based. The conditions noted are these: MDA-MB-231 cells, apoEdp up to 300 μM. Here is the method:
as §1, §2, §3

The subject of series [3] is VEGF-induced angiogenesis. The series is described as follows: Rabbit corneal micropocket assay of VEGF-induced angiogenesis. In kind it is in vivo, New Zealand White Rabbits. As to conditions: rabbit eye, 1% apoEdp eye drops 50 μL topically five times per day for five days, versus saline drops. How it is done:
The effect of apoEdp on angiogenesis in vivo was observed by testing its inhibitory effect on VEGF-induced angiogenesis in a corneal micropocket assay of a rabbit eye model. A corneal micropocket was created with a modified von Graefe cataract knife in each eye of several 2-3 pound New Zealand White Rabbits. A micropellet of 500 μm by 500 μm was prepared which contained 0.4 g of Compritol 888 ATO (Gattefosse) combined with 0.1 g of Squalane oil (Sigma Aldrich) and 20 mg/mL L-α-Phosphatidylcholine. The 20 mg/mL L-α-Phosphatidylcholine contained either saline for the control subjects or 160 ng of VEGF for the test subjects. The right eye of each test subject was implanted with a VEGF-containing pellet and the left eye of each test subject was implanted with a saline-containing pellet. Each of the pellets was positioned about 2 mm from the corneal limbus. […] The area of neovascular response, vessel length and clock hours of new blood vessel formation of each group were all calculated according to the formula, Area (mm^2)=C/12×3.1416[r^2−(r−L)^2] where, C=the number of clock hours at the limbus involved in the neovascular response, L=the length of the longest neovascular pedicle from the limbus onto the anterior cornea, and r=the radius of the cornea.

Series [4] has as its system MDA-MB-231 human breast cancer cells xenograft. In kind it is in vivo. The conditions noted are these: nude mice, about 40 mg/kg/day intralesionally for three consecutive days, versus PBS. How it is done:
The effect of apoEdp on tumor growth in vivo was observed by testing its inhibitory effect on xenograft tumor growth post-injection in nude mice.
The test subjects were female nu/nu mice, aged 8-12 weeks, weighing about 20 g. (Charles River Laboratories, Harlan, Indianapolis, Ind.) The mice were weighed, coded, and divided into experimental groups at random. The mice were subcutaneously injected with about 3×10^6 MDA-MB-231 human breast cancer cells in 100 μL PBS. The cells were injected into the right sides of the dorsal area of the test subjects. The tumor size was allowed to reach about 100 mm^3 which took about ten days.
Following injection of the tumor cells, the subjects were given injections for three consecutive days. About 40 mg/kg/day of apoEdp was injected intralesionally into the test subjects, and about […] of sterile PBS was injected intralesionally into the control subjects.
In order to evaluate tumor growth, tumor volume was determined every seven days by measuring the tumor with a digital caliper and calculating tumor volume. Volume was calculated using the formula, V=A×B^2×0.52, where A=longest diameter of the tumor, and B=the shortest diameter of the tumor.

For series [5], the system named is Flk-1. The series is described as follows: Western blot, VEGF-induced phosphorylation of Flk-1 in HUVECs. It counts as cell-based, human. As to conditions: apoEdp about 6 to about 50 μM for 1 h, VEGF 10 ng/mL ten minutes, concentration dependent. How it is done:
(§4) The mechanism by which apoEdp inhibits angiogenesis and tumor growth was evaluated using Western Blot Analysis.
(§5) Confluent HUVECs were grown in EBM-2 containing 1% FBS for twenty-four hours. The medium was then replaced with 1% FBS media in the presence or absence of apoEdp in the range of about 6 μM to about 50 μM. The cells were allowed to grow for one hour; then VEGF was added at a concentration of 10 ng/mL. The cells were then incubated for ten minutes to detect the phosphorylated forms of angiogenic signaling molecules.
(§6) The cells were lysed, quantified for protein concentration, and separated on 4% to 20% pre-cast SDS-PAGE gels. Western blots were then performed of the control cell lysates and the apoEdp treated cell lysates. The western blots were performed with antibodies against the phosphorylated and non-phosphorylated (control) forms of Flk-1, c-Src, FAK, Erk1/2, Akt and eNOS. (Santa Cruz Biotechnology, Santa Cruz, Calif.).
For orientation: Immunoblotting shows a protein as a band on a membrane.

Series [6] relates to c-Src. As to the kind of experiment: Western blot, VEGF-induced phosphorylation of c-Src in HUVECs. It counts as cell-based, human. The conditions noted are these: apoEdp about 6 to about 50 μM for 1 h, VEGF 10 ng/mL ten minutes, concentration dependent. Here is the method:
as §4, §5, §6

Series [7] concerns Akt. As to the kind of experiment: Western blot, VEGF-induced phosphorylation of Akt in HUVECs. The conditions noted are these: apoEdp about 6 to about 50 μM for 1 h, VEGF 10 ng/mL ten minutes, concentration dependent. In kind it is cell-based, human. How it is done:
as §4, §5, §6

The test system of series [8] is eNOS. As to the kind of experiment: Western blot, VEGF-induced phosphorylation of eNOS in HUVECs. It counts as cell-based, human. As to conditions: apoEdp about 6 to about 50 μM for 1 h, VEGF 10 ng/mL ten minutes, concentration dependent. How it is done:
as §4, §5, §6

The subject of series [9] is FAK. As to the kind of experiment: Western blot, VEGF-induced phosphorylation of FAK in HUVECs. As to conditions: apoEdp about 6 to about 50 μM for 1 h, VEGF 10 ng/mL ten minutes, concentration dependent. It counts as cell-based, human. How it is done:
as §4, §5, §6

Series [10] relates to Erk1/2. As to the kind of experiment: Western blot, VEGF-induced phosphorylation of Erk1/2 in HUVECs. In kind it is cell-based, human. The conditions noted are these: apoEdp about 6 to about 50 μM for 1 h, VEGF 10 ng/mL ten minutes, concentration dependent. Here is the method:
as §4, §5, §6

For series [11] the following is noted: human, human umbilical vein endothelial cells (HUVECs).
Procedure: The HUVECs, as described above, were seeded in 96-well plates at about 10,000 cells per well. The next day, the cells were starved for 18 hours in EBM-2+1% FBS without any growth supplement. The HUVECs were then incubated with apoEdp in various concentrations in the range of about 6 μM to about 300 μM. An hour later, 50 ng/mL of vascular endothelial growth factor (VEGF) was introduced. The cells were incubated for two days, and cell numbers were determined using the CellTiter96 AQuous One Solution cell proliferation kit. (Promega, Madison, Wis.)

For the sequence LRKLRKRLLLRKLRKRLL [apoEdp], the results for the CC50 at 48 h in series [1] and in [11] were above 300 µM and around 103 µM, respectively. Besides, the “effect on cell viability” value in series [2] is recorded as “no effect on cell viability”. Also, the “VEGF-induced angiogenesis (area of neovascular response)” value in series [3] was “significantly inhibited”. The “tumor growth (tumor volume)” value in series [4] is “significantly inhibited”. Further, the “VEGF-induced phosphorylation of Flk-1” value in series [5] is “significantly inhibited”. Besides, the “VEGF-induced phosphorylation of c-Src” value in series [6] is “significantly inhibited”. The “VEGF-induced phosphorylation of Akt” value in [7] was “significantly inhibited”. Moreover, the “VEGF-induced phosphorylation of eNOS” value in series [8] is on record as “significantly inhibited”. Besides, the “VEGF-induced phosphorylation of FAK” value in series [9] is on record as “significantly inhibited”. For the same sequence, in series [10], the “VEGF-induced phosphorylation of Erk1/2” value is recorded as “significantly inhibited”.
